Molecules are shown by their SMILES. pKi: −log10 of the molar value.

In general, pKi refers to the Ki on a negative log10 scale, so that one unit is a factor of ten.

The target in assay [1] is human α5β3γ2 receptors (α5-GABAA receptor) (Homo sapiens (Human), UniProt P18507+P31644). The experiment in a line: 3H-flunitrazepam competition binding, human α5β3γ2 GABAA receptor. As to conditions: HEK293 cell membranes, 1 nM 3H-flunitrazepam; read-out: α5-GABAAR Ki. The gist of the method:
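HEK293 membranes stably expressing each human receptor subtype ([…]) competed against 1 nM 3H-flunitrazepam in Tris buffer, 1 h at room temperature; flumazenil defined the low-signal control. Eight-point 4-fold test-compound dilutions; GF/C filtration and scintillation counting gave IC50 by curve fitting, converted to Ki.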

In assay [2] the target is α5-GABAA receptor (α5, β3, γ2 subunits) (Homo sapiens (Human), UniProt P18507+P31644). The experiment in a line: Whole cell patch clamp, inverse agonist efficacy in HEK293 cells expressing α5-GABAA receptor. As to conditions: GABA 0.05 μM, −60 mV; for inhibition at 0.1 µM: HEK293, drug 100 nM, read-out: Compound inverse agonist efficacy %. In kind it is cell-based. From the text:
The inventors used electrophysiological methods to determine the inverse agonist efficacy of the drugs to be tested on the α5-GABAA receptor. The detailed methods are as follows:
Different subunits of the GABAA receptor were co-expressed in the HEK293 cell line to construct a fully functional GABAA receptor. The α, β, and γ subunits are essential to form a complete functional GABAA receptor. In this example, the present disclosure had established the following cell model: α5 subunit (see GenBank Accession No.: NM_000810.3 for protein sequences), β3 subunit (see GenBank Accession No.: NM_000814.5 for protein sequences), and γ2 subunit (see GenBank Accession No.: NM_000816.3 for protein sequences) were co-expressed in the HEK293 cell line, followed by screening the monoclonal stably transfected cell line. This cell line expressed a fully functional α5-GABAA receptor.
The monoclonal stably transfected HEK293 cell line expressing α5-GABAA receptor were cultured in 10 cm culture dishes and passaged when the cells grew to 80% to 90% confluent. During passaging, the culture medium was aspirated first, then 3 mL of DPBS phosphate buffer salt (Gibco™) was added to the culture dishes, and the culture dishes were shaken slightly, and DPBS was aspirated. 1 mL of trypsin (TrypLE Express, Gibco™) was added thereto, and the cells were digested at 37° C. for 1-2 minutes. Then 3 mL of complete medium (DMEM+10% FBS (Gibco™)) was added and the cells at the bottom of the culture dishes were dispersed. The cell suspension was transferred to a 15 mL centrifugal tube (Corning) and then centrifuged at 200 g for 3 minutes. The supernatant was discarded, 4 mL of complete medium was added, and the cells were gently blown and resuspended for use. If cell passaging was performed, the cell suspension was diluted at a ratio of 1:5 or 1:10. If cells for electrophysiological detection were prepared, the cell suspension was diluted in a ratio of 1:12, then added into a 24-well dish (Corning™) in which glass slides were placed and pretreated with Poly-D-Lysine, and the experiment was carried out after the cells adhered to the wall. The cells used for electrophysiology was cultured no more than 48 hours.
Drug concentration setting: The final drug concentration used in drug screening was 100 nM, and the GABA concentration was 0.05 μM. The whole cell patch clamp technique was used in electrophysiological assays, which could refer to the literature (I. Lecker, Y. Yin, D. S. Wang and B. A. Orser, British Journal of Anaesthesia, 2013, 110 (Si), i73-i81). The compositions of the extracellular solution for electrophysiology assay were as follows: 150 mM NaCl, 5 mM KCl, 2.5 mM CaCl2, 1 mM MgCl2, 10 mM HEPES, and 10 mM glucose (pH 7.4); the formulation of the electrode internal fluid for electrophysiology use was as follows: 140 mM CsCl, 11 mM EGTA, 10 mM HEPES, 2 mM CaCl2, 1 mM MgCl2, 4 mM MgATP, and 2 mM TEA (pH 7.3). The signal acquisition used an EPC-10 amplifier and the PatchMaster software (HEKA) or Axon700B amplifier and Clampex software (AXON). The recording electrode was pulled from borosilicate glass, and the electrode resistance was 4 to 6 MQ. The ALA-VC-8PG™ system was used for drug application. Single cell that grew independently was selected for recording. During recording, the cell membrane potential was clamped at −60 mV. During experiment, an extracellular solution was applied outside the cells for about 20 seconds. When the baseline reached to a stable state, the extracellular solution was switched to the GABA solution to induce an inward current. After about 20 to 40 seconds until the current was stable, the solution was switched to a corresponding drug solution to detect the effect of the drug. At last, the solution was switched to the extracellular solution, and the experiment was terminated when the baseline returned to the level before drug application. […]
In general terms: In patch-clamp work, channel activity is measured electrically.

Turning to `Cc1nnn(-c2ccc(C(F)F)cc2)c1COc1ccc(N2CC[C@H]3CCNC(=O)[C@@H]3C2)nn1` (relative stereo) [Example 124, trans-7-(6-((1-(4-(Difluoromethyl)phenyl)-4-methyl-1H-1,2,3-triazol-5-yl)methoxy)pyridazin-3-yl)octahydro-2,7-naphthyridin-1(2H)-one], in assay [1], the pKi was 8.62. For the same compound, the inhibition at 0.1 µM in assay [2] was found to be 48.4%.

`Cc1nnn(-c2ccc(C(F)F)cc2)c1COc1ccc(N2CCN3CC(C(C)(C)C)NC(=O)[C@@H]3C2)nn1` (single isomer, unassigned) [Example 201]: the pKi in assay [1] is 8.76. Besides, the inhibition at 0.1 µM in assay [2] was 53.9%.

Consider `Cc1nnn(-c2ccc(C(F)F)cc2)c1COc1ccc(N2CCN3CC(C4CC4)NC(=O)[C@@H]3C2)nn1` (single isomer, unassigned) [Example 203], for which the pKi in assay [1] was 8.70. In assay [2], the inhibition at 0.1 µM stood at 50.8%.

For the compound `Cc1nnn(-c2ccc(C(F)F)cc2)c1COc1ccc(N2CCN3CC(CC(C)C)NC(=O)[C@@H]3C2)nn1` (single isomer, unassigned) [Example 208], the pKi in assay [1] was 8.71. Further, the inhibition at 0.1 µM in assay [2] was 55.9%.

Regarding `Cc1nnn(-c2ccc(C(F)F)cc2)c1COc1ccc(N2CCN3CC(CC(C)C)NC(=O)[C@@H]3C2)nn1` (single isomer, unassigned) [Example 209], the pKi in assay [1] is 8.69. Further, the “Compound inverse agonist efficacy %” value in assay [2] (drug 100 nM) is −52.08%.

As for `Cc1nnn(-c2ccc(C(F)F)cc2)c1COc1ccc(N2CCN3CC(c4cnn(C)c4)NC(=O)[C@@H]3C2)nn1` (single isomer, unassigned) [Example 210], the pKi in assay [1] is 8.55. The inhibition at 0.1 µM in assay [2] was found to be 47.6%.

`Cc1nnn(-c2ccc(C(F)F)cc2)c1COc1ccc(N2CCNC(=O)CC2)nn1` [Example 3, 1-(6-((1-(4-(Difluoromethyl)phenyl)-4-methyl-1H-1,2,3-triazol-5-yl)methoxy)pyridazin-3-yl)-1,4-diazepan-5-one]: the pKi in assay [1] is 8.89. Also, the inhibition at 0.1 µM in assay [2] is 40.8%.

As to `Cc1nnn(-c2ccc(C(F)F)cc2)c1COc1ccc(N2CCNC(=O)C2C)nn1` (stereo not drawn) [Example 11, 4-(6-((1-(4-(Difluoromethyl)phenyl)-4-methyl-1H-1,2,3-triazol-5-yl)methoxy)pyridazin-3-yl)-3-methylpiperazin-2-one], in assay [1], the pKi is 9.24. Also, the inhibition at 0.1 µM in assay [2] is 49.1%.

With `Cc1nnn(-c2ccc(C(F)F)cc2)c1COc1ccc(N2CCN3CCOC[C@@H]3C2)nn1` [Example 13, (S)-8-(6-((1-(4-(Difluoromethyl)phenyl)-4-methyl-1H-1,2,3-triazol-5-yl)methoxy)pyridazin-3-yl)octahydropyrazino[2,1-c][1,4]oxazine], the pKi in assay [1] was 8.66. Also, the inhibition at 0.1 µM in assay [2] came to 43.3%.

For the compound `Cc1nnn(-c2ccc(C(F)F)cc2)c1COc1ccc(N2CCC2=O)nn1` [Example 18, 1-(6-((1-(4-(Difluoromethyl)phenyl)-4-methyl-1H-1,2,3-triazol-5-yl)methoxy)pyridazin-3-yl)azetidin-2-one], the pKi in assay [1] was 8.67. Besides, in assay [2], the inhibition at 0.1 µM worked out at 51.5%.

On to `Cc1nnn(-c2ccc(C(F)F)cc2)c1COc1ccc(N2CCCC2=O)nn1` [Example 20, 1-(6-((1-(4-(Difluoromethyl)phenyl)-4-methyl-1H-1,2,3-triazol-5-yl)methoxy)pyridazin-3-yl)pyrrolidin-2-one], for which, in assay [1], the pKi is 8.71. Besides, in assay [2], the inhibition at 0.1 µM is 51.2%.

Regarding `Cc1nnn(-c2ccc(C(F)F)cc2)c1COc1ccc(N2CCN[C@@H](C(=O)O)C2)nn1` [Example 28, (R)-4-(6-((1-(4-(Difluoromethyl)phenyl)-4-methyl-1H-1,2,3-triazol-5-yl)methoxy)pyridazin-3-yl)piperazine-2-carboxylic acid], the pKi in assay [1] is 8.37. For the same compound, the inhibition at 0.1 µM in assay [2] was determined as 47.7%.

For `CNC(=O)[C@@H]1CN(c2ccc(OCc3c(C)nnn3-c3ccc(C(F)F)cc3)nn2)CCN1` [Example 30, (S)-4-(6-((1-(4-(Difluoromethyl)phenyl)-4-methyl-1H-1,2,3-triazol-5-yl)methoxy)pyridazin-3-yl)-N-methylpiperazine-2-carboxamide], the pKi in assay [1] is 8.57. Moreover, the inhibition at 0.1 µM in assay [2] turned out to be 41.9%.

Take `Cc1nnc([C@@H]2CN(c3ccc(OCc4c(C)nnn4-c4ccc(C(F)F)cc4)nn3)CCN2)o1` [Example 34, (S)-2-(4-(6-((1-(4-(Difluoromethyl)phenyl)-4-methyl-1H-1,2,3-triazol-5-yl)methoxy)pyridazin-3-yl)piperazin-2-yl)-5-methyl-1,3,4-oxadiazole]: the pKi in assay [1] was 8.15. The inhibition at 0.1 µM in assay [2] came out at 42.2%.

With `Cc1nnn(-c2ccc(C(F)F)cc2)c1COc1ccc(N2CCO[C@H](C(=O)O)C2)nn1` [Example 35, (S)-4-(6-((1-(4-(Difluoromethyl)phenyl)-4-methyl-1H-1,2,3-triazol-5-yl)methoxy)pyridazin-3-yl)morpholine-2-carboxylic acid], the pKi in assay [1] was 8.04. Moreover, the inhibition at 0.1 µM in assay [2] was 52.8%.

`Cc1nnn(-c2ccc(C(F)F)cc2)c1COc1ccc(N2CC(=O)N[C@H](C(=O)O)C2)nn1` [Example 36, (S)-4-(6-((1-(4-(Difluoromethyl)phenyl)-4-methyl-1H-1,2,3-triazol-5-yl)methoxy)pyridazin-3-yl)-6-oxopiperazine-2-carboxylic acid]: the pKi in assay [1] is 7.87. Besides, the inhibition at 0.1 µM in assay [2] was 49%.

For `Cc1nnn(-c2ccc(C(F)F)cc2)c1COc1ccc(N2CC(C(=O)O)C2)nn1` [Example 37, 1-(6-((1-(4-(Difluoromethyl)phenyl)-4-methyl-1H-1,2,3-triazol-5-yl)methoxy)pyridazin-3-yl)azetidine-3-carboxylic acid], the pKi in assay [1] is 7.91. In assay [2], the inhibition at 0.1 µM was found to be 50.6%.

For the compound `Cc1nnn(-c2ccc(C(F)F)cc2)c1COc1ccc(N2CC(C(=O)NC3CC3)C2)nn1` [Example 44, N-Cyclopropyl-1-(6-((1-(4-(difluoromethyl)phenyl)-4-methyl-1H-1,2,3-triazol-5-yl)methoxy)pyridazin-3-yl)azetidine-3-carboxamide], in assay [1], the pKi is 8.64. For the same compound, the inhibition at 0.1 µM in assay [2] came to 49.6%.

Turning to `Cc1nnn(-c2ccc(C(F)F)cc2)c1COc1ccc(N2CC(C(=O)NC3COC3)C2)nn1` [Example 45, 1-(6-((1-(4-(Difluoromethyl)phenyl)-4-methyl-1H-1,2,3-triazol-5-yl)methoxy)pyridazin-3-yl)-N-(oxetan-pyridin-3-yl)azetidine-3-carboxamide], the pKi in assay [1] was 8.49. Besides, the inhibition at 0.1 µM in assay [2] was 50.8%.

`Cc1nnn(-c2ccc(C(F)F)cc2)c1COc1ccc(N2CCN(CCN)C(=O)C2)nn1` [Example 67, 1-(2-Aminoethyl)-4-(6-((1-(4-(difluoromethyl)phenyl)-4-methyl-1H-1,2,3-triazol-5-yl)methoxy)pyridazin-3-yl)piperazin-2-one]: the inhibition at 0.1 µM in assay [2] worked out at 50.1%.

For the origin of these results see US20250136581A1, “SUBSTITUTED TRIAZOLE DERIVATIVE, PREPARATION METHOD THEREFOR, PHARMACEUTICAL COMPOSITION THEREOF, AND USE THEREOF” (SHANGHAI SIMR BIOTECHNOLOGY CO., LTD., priority 2021, published 2025).
